Numbers after ± are expanded uncertainties.
Settings: Liquid

CCOS(=O)(=O)[O-].CCn1cc[n+](C)c1 [1-ethyl-3-methylimidazolium ethyl sulfate]
mass density [kg/m3]
Settings | 100 kPa | 2500 kPa | 5000 kPa | 10000 kPa | 15000 kPa | 20000 kPa | 25000 kPa | 30000 kPa | 35000 kPa
283.15 K | 1247.6 ± 1.1 | 1248.59 ± 1.2 | 1249.58 ± 1.4 | 1251.56 ± 1.8 | 1253.65 ± 2.2 | 1255.44 ± 2.6 | 1257.31 ± 3.1 | 1259.18 ± 3.5 | 1261.04 ± 3.9
288.15 K | 1244.17 ± 1 | 1245.15 ± 1.2 | 1246.17 ± 1.4 | 1248.17 ± 1.8 | 1250.14 ± 2.2 | 1252.1 ± 2.6 | 1254.03 ± 3 | 1255.9 ± 3.5 | 1257.77 ± 3.9
293.15 K | 1240.67 ± 1 | 1241.7 ± 1.2 | 1242.72 ± 1.4 | 1244.75 ± 1.8 | 1246.75 ± 2.2 | 1248.72 ± 2.6 | 1250.66 ± 3 | 1252.56 ± 3.4 | 1254.46 ± 3.8
298.15 K | 1237.33 ± 1 | 1238.32 ± 1.2 | 1239.36 ± 1.4 | 1241.41 ± 1.8 | 1243.42 ± 2.2 | 1245.42 ± 2.6 | 1247.38 ± 3 | 1249.31 ± 3.4 | 1251.22 ± 3.8
303.15 K | 1233.95 ± 1 | 1234.96 ± 1.2 | 1236.02 ± 1.4 | 1238.1 ± 1.8 | 1240.14 ± 2.1 | 1242.15 ± 2.5 | 1244.14 ± 2.9 | 1246.11 ± 3.3 | 1248.06 ± 3.7
308.15 K | 1230.49 ± 1 | 1231.54 ± 1.2 | 1232.6 ± 1.4 | 1234.71 ± 1.7 | 1236.78 ± 2.1 | 1238.83 ± 2.5 | 1240.83 ± 2.9 | 1242.81 ± 3.3 | 1244.76 ± 3.7
313.15 K | 1227.14 ± 0.99 | 1228.21 ± 1.2 | 1229.29 ± 1.3 | 1231.41 ± 1.7 | 1233.51 ± 2.1 | 1235.57 ± 2.5 | 1237.6 ± 2.9 | 1239.6 ± 3.2 | 1241.57 ± 3.6
318.15 K | 1223.86 ± 0.98 | 1224.94 ± 1.1 | 1226.03 ± 1.3 | 1228.17 ± 1.7 | 1230.31 ± 2.1 | 1232.4 ± 2.4 | 1234.44 ± 2.8 | 1236.49 ± 3.2 | 1238.47 ± 3.6
323.15 K | 1220.46 ± 0.97 | 1221.54 ± 1.1 | 1222.66 ± 1.3 | 1224.85 ± 1.7 | 1226.99 ± 2 | 1229.11 ± 2.4 | 1231.18 ± 2.8 | 1233.23 ± 3.2 | 1235.25 ± 3.5
328.15 K | 1217.07 ± 0.96 | 1218.15 ± 1.1 | 1219.31 ± 1.3 | 1221.5 ± 1.6 | 1223.69 ± 2 | 1225.81 ± 2.4 | 1227.93 ± 2.8 | 1229.99 ± 3.1 | 1232.04 ± 3.5
333.15 K | 1213.67 ± 0.95 | 1214.63 ± 1.1 | 1215.87 ± 1.3 | 1218.14 ± 1.6 | 1220.35 ± 2 | 1222.53 ± 2.3 | 1224.65 ± 2.7 | 1226.74 ± 3.1 | 1228.8 ± 3.5
338.15 K | 1210.4 ± 0.94 | 1211.52 ± 1.1 | 1212.68 ± 1.3 | 1214.94 ± 1.6 | 1217.17 ± 2 | 1219.36 ± 2.3 | 1221.51 ± 2.7 | 1223.61 ± 3 | 1225.71 ± 3.4

CCO [ethanol]
mass density [kg/m3]
Settings | 100 kPa | 2500 kPa | 5000 kPa | 10000 kPa | 15000 kPa | 20000 kPa | 25000 kPa | 30000 kPa | 35000 kPa
283.15 K | 797.76 ± 0.45 | 799.74 ± 0.46 | 801.73 ± 0.48 | 805.58 ± 0.52 | 809.28 ± 0.56 | 812.8 ± 0.6 | 816.2 ± 0.7 | 819.47 ± 0.7 | 822.63 ± 0.74
288.15 K | 793.65 ± 0.45 | 795.66 ± 0.47 | 797.73 ± 0.48 | 801.67 ± 0.52 | 805.43 ± 0.57 | 809.06 ± 0.61 | 812.52 ± 0.66 | 815.87 ± 0.7 | 819.04 ± 0.75
293.15 K | 789.19 ± 0.45 | 791.25 ± 0.47 | 793.37 ± 0.49 | 797.42 ± 0.53 | 801.3 ± 0.6 | 804.99 ± 0.62 | 808.53 ± 0.67 | 811.94 ± 0.71 | 815.23 ± 0.76
298.15 K | 784.92 ± 0.45 | 787.03 ± 0.47 | 789.21 ± 0.49 | 793.38 ± 0.53 | 797.34 ± 0.58 | 801.11 ± 0.62 | 804.75 ± 0.67 | 808.21 ± 0.72 | 811.58 ± 0.77
303.15 K | 780.63 ± 0.45 | 782.81 ± 0.47 | 785.04 ± 0.49 | 789.3 ± 0.5 | 793.37 ± 0.58 | 797.25 ± 0.63 | 800.93 ± 0.68 | 804.49 ± 0.73 | 807.95 ± 0.78
308.15 K | 776.26 ± 0.46 | 778.54 ± 0.47 | 780.82 ± 0.49 | 785.22 ± 0.54 | 789.37 ± 0.59 | 793.34 ± 0.64 | 797.14 ± 0.69 | 800.76 ± 0.74 | 804.27 ± 0.79
313.15 K | 771.91 ± 0.46 | 774.26 ± 0.48 | 776.62 ± 0.5 | 781.13 ± 0.54 | 785.4 ± 0.6 | 789.45 ± 0.64 | 793.33 ± 0.7 | 797.04 ± 0.75 | 800.61 ± 0.8
318.15 K | 767.58 ± 0.46 | 769.99 ± 0.48 | 772.41 ± 0.5 | 777.04 ± 0.55 | 781.43 ± 0.6 | 785.59 ± 0.65 | 789.55 ± 0.7 | 793.36 ± 0.76 | 796.98 ± 0.81
323.15 K | 763.09 ± 0.46 | 765.56 ± 0.48 | 768.08 ± 0.5 | 772.84 ± 0.55 | 777.34 ± 0.6 | 781.59 ± 0.66 | 785.65 ± 0.71 | 789.53 ± 0.77 | 793.24 ± 0.82
328.15 K | 758.54 ± 0.46 | 761.09 ± 0.48 | 763.7 ± 0.5 | 768.58 ± 0.56 | 773.22 ± 0.61 | 777.57 ± 0.66 | 781.73 ± 0.72 | 785.7 ± 0.8 | 789.5 ± 0.8
333.15 K | 753.96 ± 0.46 | 756.61 ± 0.48 | 759.27 ± 0.51 | 764.32 ± 0.56 | 769.08 ± 0.61 | 773.56 ± 0.67 | 777.81 ± 0.73 | 781.87 ± 0.78 | 785.76 ± 0.84
338.15 K | 749.42 ± 0.47 | 752.16 ± 0.49 | 754.89 ± 0.51 | 760.09 ± 0.56 | 764.99 ± 0.62 | 769.59 ± 0.68 | 773.96 ± 0.74 | 778.09 ± 0.79 | 782.06 ± 0.85
343.15 K | 744.74 ± 0.47 | 747.57 ± 0.49 | 750.39 ± 0.51 | 755.74 ± 0.57 | 760.75 ± 0.63 | 765.47 ± 0.68 | 769.94 ± 0.74 | 774.17 ± 0.8 | 778.23 ± 0.86
